{"source": "patent US20040002119A1", "about": "“Method of predicting cell-based assay results using binding profiles” (priority 2002, published 2004)", "key": {"ERα LBD": {"molecular_target": "T1, ERα LBD (Homo sapiens, UniProt P03372)", "T1 sequence (P03372 311-547 limits assumed)": "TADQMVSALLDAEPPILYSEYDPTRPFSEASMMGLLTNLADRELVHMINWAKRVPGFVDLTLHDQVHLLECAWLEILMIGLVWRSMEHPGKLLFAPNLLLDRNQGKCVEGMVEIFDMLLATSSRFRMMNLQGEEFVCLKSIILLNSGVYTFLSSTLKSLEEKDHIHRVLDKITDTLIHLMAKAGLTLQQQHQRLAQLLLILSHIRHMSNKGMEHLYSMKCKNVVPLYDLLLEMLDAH", "type": "binding", "source_text": "The peptide sequences were synthesized with biotin at one end, and coupled to fluorescently distinct microsphere populations (5.6 μm streptavidin-coated latex microsphere particles). Multiple peptides of the same sequence were coupled to microspheres having the same fluorescent label, creating 46 fluorescently distinct microsphere populations (45 peptides plus no-peptide control). The microspheres populations were then multiplexed (combined). Alternatively, the ERα LBD could be coupled to the fluorescent microspheres.\nThe Estrogen Receptor a Ligand Binding Domain (ERα LBD) was coupled to the fluorophore Alexa 532 (Molecular Probes, Inc., Eugene, Oreg.), which is suitable for use with 532 nm excitation sources. The excitation and emission spectra of Alexa 532 is intermediate between the green-fluorescent Alexa Fluor 488 dye and the orange-fluorescent Alexa Fluor 546 dye.\nThe resulting binding of peptide to LBD is detected by flow cytometric analysis as is known in the art (see, e.g. WO 01/75443). In the present example, binding of ERα to a microsphere subset was indicated by the acquisition of orange fluorescence, detected using a LX-100 instrument (Luminex Corporation, Austin, Tex.). The above procedure is repeated for each compound to create a library of Binding Profiles.\nBinding Profiles for each of the six phage-identified peptides described above were also generated using the same multiplexed assay as described above."}, "[1]": {"tested_on": "MCF-7 breast cancer cells", "experiment": "MCF-7 cell proliferation assay ([3H]-thymidine incorporation)", "type": "cell-based, human", "conditions": "CPM, FIG. 11", "experimental": "MCF-7 potency=(pEC50 or pIC50)(% cpm max or % cpm min).\nCell proliferation of MCF-7 breast cancer cells was determined by [^3H]-thymidine incorporation. Compounds were tested for their potential to either stimulate MCF-7 proliferation or inhibit proliferation. An EC50 or IC50 was determined for each compound tested."}, "[2]": {"tested_on": "human endometrial cells (Ishikawa cell line)", "experiment": "Ishikawa endometrial cell stimulation assay (intrinsic alkaline phosphatase)", "type": "cell-based", "conditions": "absorbance at 405 nm minus blank; FIG. 13", "experimental": "The stimulation of human endometrial cells (Ishikawa cell line) was determined by increases in intrinsic alkaline phosphatase activity. […] The % Emax is defined as 100×(spectrophotometric reading at 405 nm with compound-blank)/(spectrophotometric reading at 405 nm estradiol-blank)."}}, "note": "“Also recorded” adds a separate entry of the source. Like-named read-outs stand apart in the source and are kept apart here.", "data": [{"compound": "4-OH tamoxifen", "values": [{"measurement": "K7P2 peptide binding to ERα LBD over basal", "setting": "ERα LBD", "value": "decreased binding of K7P2 over basal and not"}, {"measurement": "RAC3 (671-697) binding to ERα LBD relative to unliganded ERα LBD", "setting": "ERα LBD", "value": "decreases"}, {"measurement": "T1P3 peptide binding to ERα LBD over basal", "setting": "ERα LBD", "value": "increased binding of T1P3 over basal"}, {"measurement": "binding of ERα LBD to coactivator, coregulator and corepressor peptides compared to basal (no compound)", "setting": "ERα LBD", "value": "reduced the amount of peptide binding compared to basal binding; also recorded: decreases or only slightly increases binding"}]}, {"compound": "COc1ccc2c(c1)OC(C)(C)[C@@H](c1ccccc1)[C@@H]2c1ccc(OCCN2CCCC2)cc1", "note": "[levormeloxifene]", "values": [{"measurement": "K7P2 peptide binding to ERα LBD over basal", "setting": "ERα LBD; phage-identified peptide K7P2, 1 μM compound, FIG. 9", "value": "not"}]}, {"compound": "O=C(c1ccc(OCCN2CCCCC2)cc1)c1c(-c2ccc(O)cc2)sc2cc(O)ccc12", "note": "[raloxifene]", "values": [{"measurement": "MCF-7 cell proliferation with increasing compound concentration", "setting": "[1]", "value": "cell proliferation decreased"}, {"measurement": "stimulation of intrinsic alkaline phosphatase in Ishikawa cells", "setting": "[2]", "value": "very low stimulatory activity"}]}]}
